Experiments:
NCIH 460 cells = experiment: Anti-cancer screen (MTT), NCIH460; format: cell-based; conditions: Homo sapiens, NCI-H460, NCIH460 cells, 48 hours, MTT; for GI50: concentration to decrease % growth by 50%; for IC100: concentration to decrease % growth by 100%, read-out: NCIH460 TGI; for LC50: concentration to decrease % growth by 150%
Method: (§1) Experimental drugs are screened for anti-cancer activity in three cell lines for their GI50, TGI and LC50 values (using five concentrations for each compound). The cell lines are maintained in DMEM containing 10% fetal bovine serum. 96 well micro titer plates are inoculated with cells in 100 μL for 24 h at 37° C., 5% CO2, 95% air and 100% relative humidity. 5000 HCT 116 cells/well, 5000 NCIH 460 cells/well and 5000 U251 cells/well are plated. A separate plate with these cell lines is also inoculated to determine cell viability before the addition of the compounds (T0).
(§2) Following 24-hour incubation, experimental drugs are added to the 96 well plates. Each plate contains one of the above cell lines and the following in triplicate: five different concentrations (0.01, 0.1, 1, 10 and 100 μM) of four different compounds, appropriate dilutions of a cytotoxic standard and control (untreated) wells. Compounds are dissolved in DMSO to make 20 mM stock solutions on the day of drug addition and frozen at −20° C. Serial dilutions of these 20 mM stock solutions are made in complete growth medium such that 100 μL of these drug solutions in medium, of final concentrations equaling 0.01, 0.1, 1, 10 and 100 μM can be added to the cells in triplicate. Standard drugs whose anti-cancer activity has been well documented and which are regularly used are doxorubicin and SAHA.
(§3) For To measurement, 24 hours after seeding the cells, 10 μL of 3-(4,5-Dimethyl-2-thiazolyl)-2,5-diphenyl-2H-tetrazolium (MTT) solution per well is added and incubation carried out for 3 hours at 37° C., 5% CO2, 95% air and 100% relative humidity, protected from light. Cells incubated with compounds for 48 hours are treated similarly except with the addition of 20 μL MTT solution per well and a subsequent incubation under the same conditions. After 3 hours of MTT incubation, well contents are aspirated carefully followed by addition of 150 μL DMSO per well. Plates are agitated to ensure solution of the formazan crystals in DMSO and absorbance read at 570 nm. […]

HCT 116 cells = experiment: Anti-cancer screen (MTT), HCT116; format: cell-based; conditions: Homo sapiens, HCT-116, HCT116 cells, 48 hours, MTT; for GI50: concentration to decrease % growth by 50%; for IC100: concentration to decrease % growth by 100%, read-out: HCT116 TGI; for LC50: concentration to decrease % growth by 150%
Method: as §1, §2, §3

MDAMB231/U251 = experiment: Anti-cancer screen (MTT), MDAMB231/U251; format: cell-based; conditions: MDAMB231/U251 cells, 48 hours; for GI50: concentration to decrease % growth by 50%; for IC100: concentration to decrease % growth by 100%, read-out: MDAMB231/U251 TGI; for LC50: concentration to decrease % growth by 150%
Method: as §1, §2, §3

[1] = system: NCIH460, HCT116, MDAMB231/U251; experiment: Anti-cancer screen, mean GI50 over the cell lines; format: cell-based; conditions: in µM
Method: as §1, §2, §3

[2] = system: HDAC (Mouse Liver Extract); experiment: Histone Deacetylase (HDAC) Inhibition Assay using Boc-Lys (Ac)-AMC Substrate; format: biochemical; conditions: mouse liver enzyme, NA = No Activity; for HDAC Inhibition 10 μM / HDAC Inhibition 1 μM: in % (unit assumed)
Description: HDAC Activitv Screening: Histone Deacetylase (HDAC) Inhibition Assay using Boc-Lys (Ac)-AMC Substrate:
Inhibition of HDAC has been implicated to modulate transcription and to induce apoptosis or differentiation in cancer cells. The fluorometric assay provides a fast and fluorescence based method that eliminates radioactivity, extractions or chromatography, as used in traditional assays. The assay based on two steps. First, the HDAC fluorometric substrate, which comprises an acetylated lysine side chain, is incubated with a sample containing HDAC activity (Mouse Liver Extract). Deacetylation of the substrate sensitizes the substrate, in the second step; treatment with the Trypsin stop solution produces a fluorophore that can be easily analyzed using fluorescence plate reader.
Assay was done in 96 well black microplate and total volume of the assay is 100 ul. Mouse liver enzyme is diluted 1:6 with HDAC buffer. Enzyme cocktail made of 10 ul of diluted enzyme and 30 ul of HDAC buffer. 40 ul of enzyme cocktail dispensed into each well. 10 ul of different concentrations of inhibitor added in to each well, except enzyme control well. Preincubated the plate at 30° C. for 5 minutes. The HDAC reaction is started by adding 50 ul of HDAC substrate (Boc-Lys (Ac)-AMC Substrate) solution. Incubated the plate at 30° C. for 30 minutes. Adding 100 ul of Trypsin stop solution stops the reaction. The plate is incubated again at 30° C. for 20-30 minutes. The release of AMC is monitored by measuring the fluorescence at excitation wavelength of 365 or 360 nm and emission wavelength of 440 or 460 nm. Buffer and substrate alone kept for blank subtraction. (Dennis Wegener et al, Anal. Biochem, 321, 2003, 202-208).

SMILES	GI50 (NCIH 460 cells) [µM]	IC100 (NCIH 460 cells) [µM]	LC50 (NCIH 460 cells) [µM]	GI50 (HCT 116 cells) [µM]	IC100 (HCT 116 cells) [µM]	LC50 (HCT 116 cells) [µM]	GI50 (MDAMB231/U251) [µM]	IC100 (MDAMB231/U251) [µM]	LC50 (MDAMB231/U251) [µM]	Mean GI50 [1]	HDAC Inhibition 10 μM [2]	HDAC Inhibition 1 μM [2]	IC50 [2] [µM]
Cc1ccc2nc(NC(=O)CN3CCN(C(=O)CCCCCS)CC3)sc2c1 [Example 25, N-6-methyl-1,3-benzothiazol-2-yl-2-[4-(6-mercaptohexanoyl)piperazin-1-yl]acetamide]	9	> 100	> 100	3.5	> 100	> 100	0.07	0.8	> 100	4.2	3.6	–	–
O=C(CN1CCN(C(=O)CCCCCNO)CC1)Nc1nc2ccccc2s1 [Example 26]	9.5	92	> 100	8.6	> 100	> 100	27	85	> 100	15	4.5	–	–
O=C(CCCCCCC(=O)N1CCN(CC(=O)Nc2nc3ccccc3s2)CC1)NO [Example 29, 8-{4-[2-(1,3-Benzothiazol-2-ylamino)-2-oxoethyl]piperazin-1-yl}-N-hydroxy-8-oxo octanamide]	0.8	93	> 100	30	> 100	> 100	11	55	95	13.9	97.00	61.41	0.76
COC(=O)[C@H](CO)NC(=O)CCCCCCC(=O)N1CCN(CC(=O)Nc2nc3ccc(C)cc3s2)CC1 [Example 30]	42.5	80.5	> 100	8	51	79	35	56	82	28.50	4.65	–	–
O=C(CCCCCCC(=O)N1CCN(CC(=O)Nc2ccccc2)CC1)NO [Example 31, 8-{4-[2-(Phenyl-2-ylamino)-2-oxoethyl]piperazin-1-yl}-N-hydroxy-8-oxo octanamide]	60	> 100	> 100	60	> 100	> 100	0.6	94	> 100	40.20	84.96	45.20	–
